Laboratory results from BindingDB's records for doi:10.1016/S1074-5521(02)00240-5 (Nippon Roche Research Center, 2002).

Legend:
[1] = target: T1, Glycylpeptide N-tetradecanoyltransferase (Candida albicans (strain SC5314 / ATCC MYA-2876), UniProt P30418); test: Inhibition Assay
T1 sequence (P30418 whole entry): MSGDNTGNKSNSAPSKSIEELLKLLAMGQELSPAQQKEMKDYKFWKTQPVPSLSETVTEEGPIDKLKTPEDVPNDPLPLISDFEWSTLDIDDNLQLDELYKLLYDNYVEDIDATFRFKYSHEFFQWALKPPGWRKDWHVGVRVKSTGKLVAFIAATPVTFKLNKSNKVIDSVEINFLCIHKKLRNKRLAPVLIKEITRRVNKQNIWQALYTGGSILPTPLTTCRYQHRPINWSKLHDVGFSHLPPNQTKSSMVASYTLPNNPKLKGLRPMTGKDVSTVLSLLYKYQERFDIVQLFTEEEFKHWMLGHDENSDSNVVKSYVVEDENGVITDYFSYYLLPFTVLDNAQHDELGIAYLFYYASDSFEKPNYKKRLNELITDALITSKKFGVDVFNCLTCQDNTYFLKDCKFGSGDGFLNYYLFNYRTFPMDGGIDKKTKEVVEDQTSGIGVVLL

[2] = target: T2, Glycylpeptide N-tetradecanoyltransferase 1 (Homo sapiens, UniProt P30419); test: Inhibition Assay
T2 sequence (P30419 whole entry): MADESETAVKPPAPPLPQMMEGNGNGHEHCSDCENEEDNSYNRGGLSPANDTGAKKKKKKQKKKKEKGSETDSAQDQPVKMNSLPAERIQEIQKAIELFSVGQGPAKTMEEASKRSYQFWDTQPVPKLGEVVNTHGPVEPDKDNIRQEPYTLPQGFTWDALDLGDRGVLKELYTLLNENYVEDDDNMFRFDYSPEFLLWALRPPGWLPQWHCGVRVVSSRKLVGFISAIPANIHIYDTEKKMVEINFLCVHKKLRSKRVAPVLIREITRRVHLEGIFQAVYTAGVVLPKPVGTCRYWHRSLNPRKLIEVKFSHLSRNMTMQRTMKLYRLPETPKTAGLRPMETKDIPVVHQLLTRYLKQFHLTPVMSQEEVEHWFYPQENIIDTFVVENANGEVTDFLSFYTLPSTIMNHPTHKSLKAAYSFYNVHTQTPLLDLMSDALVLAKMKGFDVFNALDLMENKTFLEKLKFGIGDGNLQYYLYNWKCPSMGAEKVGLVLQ

COc1ccc(C(=O)NN=Cc2ccccc2C(=O)O)cc1OC [2-[(veratroylhydrazono)methyl]benzoic acid]
IC50 [1]: 0.83 µM

O=C(Nc1ccc(S(=O)(=O)NC2=NCCCCC2)cc1)C1COc2ccccc2O1 (stereo not drawn) [MLS000761278]
IC50 [1]: 1.1 µM | IC50 [2]: > 570 µM
